Source: US9687432B2, “Antimicrobial bispyridine amine compositions and uses” (LONZA INC., priority 2012, dated 2017)

What was measured:
[1] = tested on: Aspergillus niger (16404); test: Minimum Inhibitory Concentration (MIC) test, 96-well microtiter plate; assay type: cell-based; conditions: 48 hrs at 36° C., Sabouraud Dextrose Broth
Method: (§1) MICs for the organisms were determined using a standard 96-well microtiter plate assay in Tryptic Soy Broth (TSB) or Sabouraud Dextrose Broth (SDB). A stock solution (2500 ppm) of Octenidine distearate was prepared in methanol and stock solutions (2500 ppm) of Octenidine dihydrochloride and PHMB were prepared in absolute ethanol. […] Fungal inocula were grown up on Sabouraud Dextrose Agar plates (yeast) or Potato Dextrose Agar plates (mold) and mold spores and yeast cells were adjusted to approximately 100,000 per milliliter in Sabouraud Dextrose Broth (pH 5.6). Bacterial and fungal cultures were used to inoculate the serially diluted antimicrobials in the 96 well microplate and the plate was then incubated for 48 hrs at 36° C. The lowest concentration of test compound inhibiting growth at 48 hrs. (as determined by visual inspection) was recorded as the Minimum Inhibitory Concentration (MIC)

Paecilomyces sp. = test: as above; assay type: cell-based; conditions: 48 hrs at 36° C., Sabouraud Dextrose Broth
Method: as §1

[2] = tested on: Klebsiella pneumoniae (4352); test: as above; assay type: cell-based; conditions: 48 hrs at 36° C., visual inspection
Method: as §1

[3] = tested on: Pseudomonas aeruginosa (15442); test: as above; assay type: cell-based; conditions: 48 hrs at 36° C., visual inspection
Method: as §1

[4] = tested on: Pseudomonas aeruginosa (9027); test: as above; assay type: cell-based; conditions: 48 hrs at 36° C., visual inspection
Method: as §1

LB penicillium sp. = test: as above; assay type: cell-based; conditions: 48 hrs at 36° C., Sabouraud Dextrose Broth
Method: as §1

[5] = tested on: Enterobacter gergoviae (33028); test: as above; assay type: cell-based; conditions: 48 hrs at 36° C., visual inspection
Method: as §1

Bacillus subtilus (6633) = test: as above; assay type: cell-based; conditions: 48 hrs at 36° C., visual inspection
Method: as §1

[6] = tested on: Gliocladium virens (9645); test: as above; assay type: cell-based; conditions: 48 hrs at 36° C., Sabouraud Dextrose Broth
Method: as §1

[7] = tested on: Staphylococcus aureus (6538); test: as above; assay type: cell-based; conditions: 48 hrs at 36° C., visual inspection
Method: as §1

[8] = tested on: Penicillium pinophilium (11797); test: as above; assay type: cell-based; conditions: 48 hrs at 36° C., Sabouraud Dextrose Broth
Method: as §1

Candida albicans (10231) = test: as above; assay type: cell-based; conditions: 48 hrs at 36° C., Sabouraud Dextrose Broth
Method: as §1

[9] = tested on: Aureobasidium pullulans (9348); test: as above; assay type: cell-based; conditions: 48 hrs at 36° C., Sabouraud Dextrose Broth
Method: as §1

Escherichia coli (10536) = test: as above; assay type: cell-based; conditions: 48 hrs at 36° C., visual inspection
Method: as §1

[10] = tested on: Enterococcus hirae (8043); test: as above; assay type: cell-based; conditions: 48 hrs at 36° C., visual inspection
Method: as §1

Foam height test = assay type: physicochemical; conditions: for foam height, 30 sec / foam height, 1 min / foam height, 2 min / foam height, Initial Reading: 0.5 grams in 49.5 ml DI water; for foam height, 30 sec / foam height, 1 min / foam height, 2 min: 100 ml graduated cylinder; for foam height, Initial Reading: read in 100 ml graduated cylinder with 1 ml line increments; for Type of Foam: 0.5 grams of active in 49.5 ml DI water, blended 1 minute
Method: The testing was performed on samples containing octenidine dihydrochloride, octenidine distearate, PHMB HCl and the chloride salts benzalkonium chloride, benzethonium chloride, and cetylpyridinium chloride.
A 250 ml beaker was filed with 49.5 ml of deionized (DI) water for each sample. Then, 0.5 grams of the active was added to the beaker. Each solution was blended with a Bamix® wand homogenizer/mixer for 1 minute. The solution was then poured into a 100 ml graduated cylinder with 1 ml line increments. The height of the foam was documented at an initial, 30 second, 1 minute, and 2 minute time point.

[11] = tested on: Staphylococcus haemolyticus (29970); test: MIC test against skin microorganisms; assay type: cell-based; conditions: 48 hrs at 36° C., two different sets
Method: (§2) MICs for the organisms were determined using a standard 96-well microtiter plate assay in Trypic Soy Broth (TSB). […] Bacteria were grown in Tryptic Soy Broth or Brain Heart Infusion (E. hirae) for 24 hrs and were adjusted to one million cells per milliliter in same type of broth. Following incubation (48 hrs at 36° C.), the lowest concentration of test compound inhibiting growth was recorded as the Minimum Inhibitory Concentration (MIC). The actives were serially diluted and tested at final concentrations ranging from 156.3-0.61 ppm. MIC was run for two different sets.
(§3) Bacteria were grown overnight in Tryptic Soy Brother (TSB) or Brain Heart Infusion (BHI) and were adjusted to approximately 1×10^6 colony forming units per ml (cfu/ml) and used to inoculate the wells. Final bacterial concentration in the test wells was 5×10^5 cfu/ml. For Corynebacterium spp, TSB was used for the first set and BHI for the second set. Inoculated microtiter plates were incubated at 36° C. for 48 hours.
(§4) The lowest concentration of test compound inhibiting growth was recorded as the minimum inhibitory concentration.

[12] = tested on: Corynebacterium minutissimum (23348); test: MIC test against skin microorganisms; assay type: cell-based; conditions: 48 hrs at 36° C., TSB first set, BHI second set
Method: as §2, §3, §4

[13] = tested on: Bacillus licheniformis (14580); test: MIC test against skin microorganisms; assay type: cell-based; conditions: 48 hrs at 36° C., two different sets
Method: as §2, §3, §4

[14] = tested on: Corynebacterium xerosis (373); test: MIC test against skin microorganisms; assay type: cell-based; conditions: 48 hrs at 36° C., TSB first set, BHI second set
Method: as §2, §3, §4

## polyhexamethylene biguanide hydrochloride [PHMB]
[1]
  Minimum Inhibitory Concentration (MIC): 2.44 ppm
Paecilomyces sp.
  Minimum Inhibitory Concentration (MIC): 1250-5000 ppm
[2]
  Minimum Inhibitory Concentration (MIC): 1.22-2.44 ppm ^
[3]
  Minimum Inhibitory Concentration (MIC): 4.88 ppm
[4]
  Minimum Inhibitory Concentration (MIC): 2.44 ppm
LB penicillium sp.
  Minimum Inhibitory Concentration (MIC): 1.22 ppm
[5]
  Minimum Inhibitory Concentration (MIC): 1.22-2.44 ppm ^
Bacillus subtilus (6633)
  Minimum Inhibitory Concentration (MIC): 0.31-0.61 ppm ^
[6]
  Minimum Inhibitory Concentration (MIC): 0.61 ppm
[7]
  Minimum Inhibitory Concentration (MIC): 1.22-2.44 ppm ^
[8]
  Minimum Inhibitory Concentration (MIC): 2.44 ppm
Candida albicans (10231)
  Minimum Inhibitory Concentration (MIC): 0.61 ppm
[9]
  Minimum Inhibitory Concentration (MIC): 1.22 ppm
Escherichia coli (10536)
  Minimum Inhibitory Concentration (MIC): 1.22 ppm
[10]
  Minimum Inhibitory Concentration (MIC): 2.44 ppm
Foam height test
  foam height, 30 sec: 85
  foam height, 1 min: 80
  foam height, 2 min: 75
  foam height, Initial Reading: 87
  Type of Foam: Slightly loose

## benzalkonium chloride
Foam height test
  foam height, 30 sec: 103
  foam height, 1 min: 102
  foam height, 2 min: 102
  foam height, Initial Reading: 103
  Type of Foam: Tight

## Polyhexamethylene biguanide stearate [PHMBS]
[11]
  MIC (ppm): 2.44-4.88 ppm
[12]
  MIC (ppm): 0.61-4.88 ppm
[13]
  MIC (ppm): 2.44-4.88 ppm
[14]
  MIC (ppm): 9.76 ppm

## CC(C)(C)CC(C)(C)c1ccc(OCCOCC[N+](C)(C)Cc2ccccc2)cc1 [Benzethonium Chloride, benzethonium chloride]
Foam height test
  foam height, 30 sec: 107
  foam height, 1 min: 107
  foam height, 2 min: 106
  foam height, Initial Reading: 107
  Type of Foam: Tight
